Read-outs that look alike come from different tables or passages of the source.
Legend:
[1] = test system: Leptosphaeria nodorum (LEPTNO); assay: In vitro fungitoxicity of hydrazones with and without copper towards Leptosphaeria nodorum (Example 26); assay type: cell-based; settings: 72 h at 25° C.; for inhibition of growth at 0.05 µg/mL: Parastagonospora nodorum, 72 h, read-out: LEPTNO % Inhn. Minus Copper Observed; for inhibition of growth at 0.05 µg/mL / LEPTNO % Inhn. Minus Copper Observed: copper-minus medium
Phytophthora infestans = assay type: in vivo, Phytophthora infestans on tomato; settings: applied 24 h before inoculation, assessed 7 days after inoculation
[2] = test compound Concn. 0.05 μg/mL
[3] = copper-plus medium (CuCl2 10 μM), test compound Concn. 0.05 μg/mL
[4] = hydrazone 50 ppm with 50 μM CuCl2.2H2O, tomato late blight
[5] = compound 0.05 μg/mL, copper-plus medium (CuCl2.2H2O)
[6] = hydrazone 50 ppm + 50 μM CuCl2.2H2O, tomato

COc1ccc(/C(C)=N/NC(=O)c2ccccc2O)c(O)c1 [Example 473]
inhibition of growth at 0.05 µg/mL [1, 2]: 0%
LEPTNO % Inhn. Plus Copper Observed [1, 3]: 97.5%
TLB % Control (Phytophthora infestans; [4]): 78.0%
melting point: 276 to 278 °C

O=C(N/N=C/c1cc(Cl)cc(Cl)c1O)c1cccc([N+](=O)[O-])c1 [Example 248]
inhibition of growth at 0.05 µg/mL ([1]; compound 0.05 μg/mL): 12.4%
LEPTNO % Inhn. Plus Copper Observed [1, 5]: 96.3%
TLB % Control (Phytophthora infestans; [6]): 98.0%
melting point: 234 to 237 °C

O=C(N/N=C/c1ccc(Cl)c(Cl)c1O)c1cccc(F)c1 [Example 356]
inhibition of growth at 0.05 µg/mL [1, 2]: 18.6%
LEPTNO % Inhn. Plus Copper Observed [1, 3]: 98.0%
TLB % Control (Phytophthora infestans; [4]): 93.0%
melting point: 215 to 218 °C

O=C(N/N=C/c1ccc(Cl)c(Cl)c1O)c1ccc([N+](=O)[O-])cc1 [Example 361]
inhibition of growth at 0.05 µg/mL [1, 2]: 3.3%
LEPTNO % Inhn. Plus Copper Observed [1, 3]: 96.4%
TLB % Control (Phytophthora infestans; [4]): 97.0%
melting point: 237 to 243 °C

O=C(N/N=C/c1cc(C(F)(F)F)ccc1O)c1cccc(F)c1 [Example 437]
inhibition of growth at 0.05 µg/mL [1, 2]: 9.2%
LEPTNO % Inhn. Plus Copper Observed [1, 3]: 97.0%
TLB % Control (Phytophthora infestans; [4]): 100.0%
melting point: 188 to 196 °C

C/C(=N\NC(=O)c1cccc(Cl)c1)c1cc(Cl)ccc1O [Example 509]
inhibition of growth at 0.05 µg/mL [1, 2]: 0%
LEPTNO % Inhn. Plus Copper Observed [1, 3]: 96.2%
TLB % Control (Phytophthora infestans; [4]): 85.0%
melting point: 244 to 249 °C

C/C(=N\NC(=O)c1ccc(Cl)cc1O)c1cc(Cl)cc(Cl)c1O [Example 489]
inhibition of growth at 0.05 µg/mL [1, 2]: 15.8%
LEPTNO % Inhn. Plus Copper Observed [1, 3]: 97.8%
TLB % Control (Phytophthora infestans; [4]): 85.0%
melting point: 314 to 317 °C

C/C(=N\NC(=O)c1ccccc1Br)c1cc(Cl)cc(Cl)c1O [Example 57]
inhibition of growth at 0.05 µg/mL ([1]; compound 0.05 μg/mL): 0%
LEPTNO % Inhn. Plus Copper Observed [1, 5]: 97.3%
TLB % Control (Phytophthora infestans; [6]): 89.5%
melting point: 220 to 222 °C

C/C(=N\NC(=O)c1ccccc1Cl)c1cc(Br)cc(Br)c1O [Example 543]
inhibition of growth at 0.05 µg/mL [1, 2]: 1.3%
LEPTNO % Inhn. Plus Copper Observed [1, 3]: 93.9%
TLB % Control (Phytophthora infestans; [4]): 100.0%
melting point: 207 to 209 °C

O=C(N/N=C/c1cccc(Cl)c1O)c1cccc([N+](=O)[O-])c1 [Example 429]
inhibition of growth at 0.05 µg/mL [1, 2]: 10.4%
LEPTNO % Inhn. Plus Copper Observed [1, 3]: 97.4%
TLB % Control (Phytophthora infestans; [4]): 94.0%
melting point: 236 to 239 °C

O=C(N/N=C/c1cccc(Cl)c1O)c1ccccc1C(F)(F)F [Example 432]
inhibition of growth at 0.05 µg/mL [1, 2]: 0%
LEPTNO % Inhn. Plus Copper Observed [1, 3]: 95.9%
TLB % Control (Phytophthora infestans; [4]): 72.0%
melting point: 118 to 121 °C

C/C(=N\NC(=O)c1ccc(Br)cc1)c1cc(F)cc(F)c1O [Example 580]
inhibition of growth at 0.05 µg/mL [1, 2]: 3.1%
LEPTNO % Inhn. Plus Copper Observed [1, 3]: 98.1%
TLB % Control (Phytophthora infestans; [4]): 97.0%
melting point: 268 to 270 °C

C/C(=N\NC(=O)c1ccccc1O)c1cc(F)cc(F)c1O [Example 583]
inhibition of growth at 0.05 µg/mL [1, 2]: 13.2%
LEPTNO % Inhn. Plus Copper Observed [1, 3]: 98.0%
TLB % Control (Phytophthora infestans; [4]): 100.0%
melting point: 308 to 323 °C

C/C(=N\NC(=O)c1ccc(Br)cc1)c1ccc(Cl)cc1O [Example 460]
inhibition of growth at 0.05 µg/mL [1, 2]: 0%
LEPTNO % Inhn. Plus Copper Observed [1, 3]: 97.6%
TLB % Control (Phytophthora infestans; [4]): 39.0%
melting point: 258 to 259 °C

O=C(N/N=C/c1ccc(Cl)c(Cl)c1O)c1cccc(Cl)c1 [Example 358]
inhibition of growth at 0.05 µg/mL [1, 2]: 12.7%
LEPTNO % Inhn. Plus Copper Observed [1, 3]: 98.3%
TLB % Control (Phytophthora infestans; [4]): 100.0%
melting point: 219 to 222 °C

Cc1ccc(O)c(C(=O)N/N=C/c2cc(Cl)cc(Cl)c2O)c1 [Example 258]
inhibition of growth at 0.05 µg/mL ([1]; compound 0.05 μg/mL): 34.1%
LEPTNO % Inhn. Plus Copper Observed [1, 5]: 97.4%
TLB % Control (Phytophthora infestans; [6]): 87.0%
melting point: 277 to 280 °C

C/C(=N\NC(=O)c1ccc(C)cc1)c1cccc([N+](=O)[O-])c1O [Example 271]
inhibition of growth at 0.05 µg/mL ([1]; compound 0.05 μg/mL): 6.9%
LEPTNO % Inhn. Plus Copper Observed [1, 5]: 98.9%
TLB % Control (Phytophthora infestans; [6]): 61.0%
melting point: 242 to 249 °C

O=C(N/N=C/c1c(C(F)(F)F)ccc(Cl)c1O)c1ccccc1 [Example 319]
inhibition of growth at 0.05 µg/mL [1, 2]: 18.1%
LEPTNO % Inhn. Plus Copper Observed [1, 3]: 96.6%
TLB % Control (Phytophthora infestans; [4]): 78.0%
melting point: 216 to 218 °C

O=C(N/N=C/c1cc(Cl)cc(Br)c1O)c1cccc([N+](=O)[O-])c1 [Example 416]
inhibition of growth at 0.05 µg/mL [1, 2]: 4.3%
LEPTNO % Inhn. Plus Copper Observed [1, 3]: 97.5%
TLB % Control (Phytophthora infestans; [4]): 93.0%
melting point: 167 to 226 °C

COc1cccc(C(=O)N/N=C/c2cc(Cl)ccc2O)c1C [Example 133]
inhibition of growth at 0.05 µg/mL ([1]; compound 0.05 μg/mL): 8.8%
LEPTNO % Inhn. Plus Copper Observed [1, 5]: 98.5%
TLB % Control (Phytophthora infestans; [6]): 71.9%
melting point: 122 to 128 °C

CC/C(=N\NC(=O)c1ccc(C)cc1C)c1ccccc1O [Example 34]
LEPTNO % Inhn. Minus Copper Observed ([1]; compound 0.05 μg/mL): 0.0%
LEPTNO % Inhn. Plus Copper Observed [1, 5]: 97.8%
TLB % Control (Phytophthora infestans; [6]): 68.4%
melting point: 175 to 176 °C

O=C(N/N=C/c1c(C(F)(F)F)ccc(Cl)c1O)c1cccc([N+](=O)[O-])c1 [Example 453]
inhibition of growth at 0.05 µg/mL [1, 2]: 5.6%
LEPTNO % Inhn. Plus Copper Observed [1, 3]: 100.0%
TLB % Control (Phytophthora infestans; [4]): 100.0%
melting point: 277 to 279 °C

C/C(=N\NC(=O)c1ccccc1C)c1cccc(Cl)c1O [Example 493]
inhibition of growth at 0.05 µg/mL [1, 2]: 0%
LEPTNO % Inhn. Plus Copper Observed [1, 3]: 97.8%
TLB % Control (Phytophthora infestans; [4]): 95.0%
melting point: 193 to 198 °C

CSc1cc(Br)c(O)c(/C=N/NC(=O)c2ccccc2)c1 [Example 298]
inhibition of growth at 0.05 µg/mL [1, 2]: 0.7%
LEPTNO % Inhn. Plus Copper Observed [1, 3]: 95.0%
TLB % Control (Phytophthora infestans; [4]): 74.6%
melting point: 207 to 209 °C

N#Cc1ccc(C(=O)N/N=C/c2cc(Cl)cc(Cl)c2O)cc1 [Example 310]
inhibition of growth at 0.05 µg/mL [1, 2]: 2.4%
LEPTNO % Inhn. Plus Copper Observed [1, 3]: 96.6%
TLB % Control (Phytophthora infestans; [4]): 64.0%
melting point: 234 to 270 °C

COc1ccc(/C(C)=N/NC(=O)c2ccc(Br)cc2)c(O)c1OC [Example 559]
inhibition of growth at 0.05 µg/mL [1, 2]: 10%
LEPTNO % Inhn. Plus Copper Observed [1, 3]: 97.3%
TLB % Control (Phytophthora infestans; [4]): 93.0%
melting point: 241 to 245 °C

O=C(N/N=C/c1ccc(Cl)cc1O)c1ccccc1O [Example 395]
inhibition of growth at 0.05 µg/mL [1, 2]: 8.2%
LEPTNO % Inhn. Plus Copper Observed [1, 3]: 93.9%
TLB % Control (Phytophthora infestans; [4]): 76.0%
melting point: 210 to 213 °C

Cc1cccc(C(=O)N/N=C/c2cccc(Cl)c2O)c1 [Example 423]
inhibition of growth at 0.05 µg/mL [1, 2]: 0.8%
LEPTNO % Inhn. Plus Copper Observed [1, 3]: 98.0%
TLB % Control (Phytophthora infestans; [4]): 98.0%
melting point: 166 to 169 °C

CC(C)c1ccc(C(=O)N/N=C/c2cc(Cl)cc(Cl)c2O)cc1 [Example 41]
LEPTNO % Inhn. Minus Copper Observed ([1]; compound 0.05 μg/mL): 0.0%
LEPTNO % Inhn. Plus Copper Observed [1, 5]: 97.2%
TLB % Control (Phytophthora infestans; [6]): 87.0%
melting point: 261 to 263 °C

O=C(N/N=C/c1cc(C(F)(F)F)cc(Cl)c1O)c1cccc(Cl)c1 [Example 325]
inhibition of growth at 0.05 µg/mL [1, 2]: 0%
LEPTNO % Inhn. Plus Copper Observed [1, 3]: 95.7%
TLB % Control (Phytophthora infestans; [4]): 100.0%
melting point: 210 to 212 °C

C/C(=N\NC(=O)c1ccccc1)c1cccc([N+](=O)[O-])c1O [Example 268]
inhibition of growth at 0.05 µg/mL ([1]; compound 0.05 μg/mL): 1.2%
LEPTNO % Inhn. Plus Copper Observed [1, 5]: 98.7%
TLB % Control (Phytophthora infestans; [6]): 31.0%
melting point: 215 to 224 °C

C/C(=N\NC(=O)c1ccc(C)cc1)c1ccc(Cl)cc1O [Example 254]
inhibition of growth at 0.05 µg/mL ([1]; compound 0.05 μg/mL): 8.3%
LEPTNO % Inhn. Plus Copper Observed [1, 5]: 98.1%
TLB % Control (Phytophthora infestans; [6]): 0.0%
melting point: 254 to 256 °C

Cc1ccc(C(=O)N/N=C/c2cc(Cl)cc(Br)c2O)c(O)c1 [Example 434]
inhibition of growth at 0.05 µg/mL [1, 2]: 25.6%
LEPTNO % Inhn. Plus Copper Observed [1, 3]: 97.4%
TLB % Control (Phytophthora infestans; [4]): 100.0%
melting point: 262 to 268 °C

— patent publication US20120010075A1 (priority 2009, published 2012)
